Data as given in patent publication US20260250318A1, “COMPOSITIONS AND METHODS FOR CROSSING THE BLOOD BRAIN BARRIER” (VOYAGER THERAPEUTICS, INC., priority 2022, published 2026).

What was measured:
Settings in all cases: synthetic library passage 3, intravenous, relative to wild-type AAV9
[1] = system: brain, spinal cord, and DRG of the NHPs; experiment: NGS fold enrichment of synthetic library (passage 3) in NHPs, first cross-species screen; assay type: in vivo, cynomolgus macaques (Macaca fascicularis)
Method in brief: (§1)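 Synthetic capsid library (passage 3) was given intravenously […] to NHPs aged 2-4 years and to BALB/c and C57Bl/6 mice (n=3 each, 6-8 weeks). After about 28 days in vivo, tissue RNA was RT-PCR amplified and NGS-sequenced; values are fold enrichment per variant relative to wild-type AAV9.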

brain [2] = experiment: NGS fold enrichment of synthetic library (passage 3) in BALB/c mice, first cross-species screen; assay type: in vivo
Method in brief: as §1

brain [3] = experiment: NGS fold enrichment of synthetic library (passage 3) in C57Bl/6 mice, first cross-species screen; assay type: in vivo
Method in brief: as §1

[4] = RNA from spinal cord of NHPs, NGS
[5] = RNA from brain of BALB/c mice, NGS
[6] = RNA from brain of C57Bl/6 mice, NGS

Row | Sequence | Fold enrichment over AAV9 in the brain of NHPs ([1]; RNA from brain of NHPs, NGS) | Fold enrichment over AAV9 in the spinal cord of NHPs [1, 4] | Fold enrichment over AAV9 in the brain of Mice (BALB/c) (brain [2]; [5]) | Fold enrichment over AAV9 in the brain of Mice (C57Bl/6) (brain [3]; [6]) | Fold enrichment over AAV9 in the brain of NHPs ([1]; RNA NGS, brain of NHPs) | Fold enrichment over AAV9 in the spinal cord of NHPs ([1]; RNA NGS, spinal cord of NHPs) | Fold enrichment over AAV9 in the brain of Mice (BALB/c) (brain [2]; RNA NGS, brain of BALB/c mice) | Fold enrichment over AAV9 in the brain of Mice (C57Bl/6) (brain [3]; RNA NGS, brain of C57Bl/6 mice)
1 | GSGQNQALVSMGQT | 1.255 fold | 1.876 fold | 0.560 fold | 0.987 fold |  |  |  | 
2 | GSGGGLQHNQNQQT | 1.163 fold | 4.098 fold | 0.778 fold | 1.137 fold |  |  |  | 
3 | GHAHYQASGQNQQT | 1.377 fold | 7.299 fold | 0.745 fold | 0.803 fold |  |  |  | 
4 | GSGQNQQTSQPLPG | 1.141 fold | 0.080 fold | 0.530 fold | 0.748 fold |  |  |  | 
5 | GSGKVTKQSQNQQT |  |  |  |  | 1.095 fold | 0.000 fold | 1.035 fold | 0.928 fold
6 | GSVHLSVTGQNQQT |  |  |  |  | 2.882 fold | 1.157 fold | 0.282 fold | 0.741 fold
7 | GSGVSARMVQNQQT | 1.299 fold | 0.624 fold | 0.697 fold | 0.870 fold |  |  |  | 
8 | GSRTVPVYGQNQQT | 1.371 fold | 0.363 fold | 0.969 fold | 1.226 fold |  |  |  | 
9 | GSGPQSHTGQNQQT |  |  |  |  | 1.757 fold | 9.490 fold | 0.447 fold | 0.958 fold
10 | GSGQNQQVLTTART |  |  |  |  | 1.434 fold | 4.142 fold | 0.948 fold | 1.071 fold
11 | GIARTTISGQNQQT |  |  |  |  | 1.078 fold | 1.783 fold | 0.330 fold | 0.819 fold
12 | GSIQYQSSGQNQQT | 1.147 fold | 2.601 fold | 1.191 fold | 1.074 fold |  |  |  | 
13 | GHPSPHVSGQNQQT |  |  |  |  | 1.713 fold | 0.416 fold | 0.488 fold | 0.551 fold
14 | GSGQNQQVAIRTST |  |  |  |  | 1.035 fold | 2.447 fold | 0.370 fold | 0.963 fold
15 | GSGQIRHSDQNQQT |  |  |  |  | 2.600 fold | 12.884 fold | 0.320 fold | 1.170 fold
16 | GSGQNQQHYGSQGT | 1.189 fold | 0.453 fold | 0.379 fold | 1.345 fold |  |  |  | 
17 | GLRLSTPSGQNQQT |  |  |  |  | 1.498 fold | 4.334 fold | 0.522 fold | 0.804 fold
18 | GSGQNQQLVSRVQT | 1.381 fold | 1.195 fold | 0.466 fold | 0.656 fold |  |  |  | 
19 | GVAGSLVSGQNQQT |  |  |  |  | 2.358 fold | 7.670 fold | 1.160 fold | 1.321 fold
20 | GSGQVHNPTQNQQT | 1.410 fold | 2.488 fold | 0.542 fold | 1.021 fold |  |  |  | 
21 | GSSVGVPSGQNQQT | 1.322 fold | 4.867 fold | 1.157 fold | 0.336 fold |  |  |  | 
22 | GRGQVVSTHQNQQT |  |  |  |  | 1.607 fold | 3.318 fold | 0.561 fold | 0.931 fold
23 | GSGNPHVRNQNQQT |  |  |  |  | 1.112 fold | 0.873 fold | 0.755 fold | 0.732 fold
24 | GSGHLPQSAQNQQT |  |  |  |  | 2.803 fold | 7.828 fold | 0.496 fold | 0.826 fold
25 | GSGMIIASMQNQQT |  |  |  |  | 1.469 fold | 6.722 fold | 0.415 fold | 1.135 fold
26 | GSSHTLALGQNKQT | 1.362 fold | 2.160 fold | 0.643 fold | 0.838 fold |  |  |  | 
